Reference: US10632119B2, “Fused bicyclic 2,4-diaminopyrimidine derivative as a dual ALK and FAK inhibitor” (priority 2012, dated 2020)
Like-named read-outs stand apart in the source and are kept apart here.

Assays:
Muscarinic M4 = Muscarinic M4 (Homo sapiens, UniProt P08173); experiment: Receptor selectivity (Cerep); assay type: binding
[1] = tested on: Karpas-299 tumor xenografts; details: for anti-tumor efficacy: amorphous HCl salt
Method: Anti-Tumor Efficacy Studies—General Protocol
The tumor volumes were then calculated with the formula of 0.5236*L*W*(L+W)/2.
Anti-Tumor Efficacy in NPM-ALK Positive Sup-M2 and Karpas-299 ALCL Tumor Xenograft Models in Mice

[2] = tested on: NCI-H2228 NSCLC tumor xenografts; experiment: Anti-tumor activity, EML4-ALK positive NCI-H2228 NSCLC xenograft
Text: Anti-Tumor Activity in EML4-ALK Positive (NCI-H2228 and NCI-H3122) NSCLC Tumor Xenografts in Mice with Oral Dosing
Generation of EML4-ALK-positive and EML4-ALK-negative NSCLC Subcutaneous Tumor Xenografts in Scid Mice Female Scid/Beige mice (6-8 weeks, Taconic, Hudson. N.Y.) were maintained 5/cage in microisolator units on a standard laboratory diet (Teklad Labchow, Harlan Teklad, Madison, Wis.). Animals were housed under humidity- and temperature controlled conditions and the light/dark cycle was set at 12-hour intervals. Mice were quarantined at least 1 week prior to experimental manipulation. […] The mice were monitored until the tumor xenograft volumes reached 200-500 mm3.
The length (L) and width (W) of each tumor were measured with vernier calipers and the mouse body weight was determined every two to three days. […] Percent tumor growth inhibition (% TGI) was calculated as follows: (tumor volume of the control group at end of treatment—tumor volume of the treated group at the end of treatment)/tumor volume of the control group at the end of treatment. […] Complete tumor regression (CR) was defined as the tumor volume of the treated group at the end of treatment being less than 5% of the tumor volume of the treated group as the start of treatment. Statistical analyses of tumor volumes and mouse body weights were carried out with the Mann-Whitney Rank Sum Test. Plasma and tumor samples were obtained at 2 hours post final dose at each dose level, and the compound levels in plasma and tumor lysates were measured by LC-MS/MS

Monkey bioavailability = details: in vivo, po
Protein binding, mouse = assay type: in vitro ADME; details: mouse (M)
[3] = four weeks of additional treatment at 55 mg/kg qd po

Sequence of Muscarinic M4 (P08173 whole entry): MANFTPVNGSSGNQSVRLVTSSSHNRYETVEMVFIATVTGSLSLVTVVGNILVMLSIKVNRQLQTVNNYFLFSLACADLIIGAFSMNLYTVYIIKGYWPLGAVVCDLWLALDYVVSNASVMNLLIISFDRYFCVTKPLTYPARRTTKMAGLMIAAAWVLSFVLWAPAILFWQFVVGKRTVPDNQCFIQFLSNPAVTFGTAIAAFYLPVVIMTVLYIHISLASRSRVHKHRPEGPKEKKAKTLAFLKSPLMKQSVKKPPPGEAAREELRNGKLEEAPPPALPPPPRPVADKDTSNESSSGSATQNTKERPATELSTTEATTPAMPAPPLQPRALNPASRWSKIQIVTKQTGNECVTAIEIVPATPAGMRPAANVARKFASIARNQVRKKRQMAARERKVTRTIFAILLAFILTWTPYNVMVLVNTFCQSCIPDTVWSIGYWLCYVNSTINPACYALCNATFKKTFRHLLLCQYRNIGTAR

For `CNC(=O)c1ccccc1Nc1nc(Nc2ccc3c(c2OC)CCC[C@H](N2CCN(CCO)CC2)C3)ncc1Cl` [CEP-37440, 2-[[5-chloro-2-[[(6S)-6-[4-(2-hydroxyethyl)piperazin-1-yl]-1-methoxy-6,7,8,9-tetrahydro-5H-benzo[7]annulen-2-yl]amino]pyrimidin-4-yl]amino]-N-methyl-benzamide], the Ki (Muscarinic M4) was 460 nM, the anti-tumor efficacy ([1]; 30 mg/kg bid, 12 days) was “complete or near complete tumor regression” and the anti-tumor efficacy ([1]; 30 mg/kg qd) was “significant anti-tumor activity”. For the same molecule, the anti-tumor efficacy ([1]; 55 mg/kg, qd, 12 days) was “complete or near complete tumor regression”, the “tolerability, body weight” value ([1]; all dosing regimens) was “well tolerated with no overt toxicity and no significant body weight loss” and the “mice with sustained tumor regressions, no tumor re-emergence” value ([2]; 40 days following cessation of treatment) was 100%. The “animals with sustained complete tumor regression” value [2, 3] was 100%, the “tolerability, body weight” value [2, 3] was “well tolerated with no overt toxicity and no significant body weight loss” and the bioavailability (Monkey bioavailability; 10 mg/kg) was 50%. The bioavailability (Monkey bioavailability; 30 mg/kg) was 74% and the Protein binding (Protein binding, mouse) was 85 % bound.
